Measurements: ChEMBL document CHEMBL5506035, “Discovery of Glutamate Carboxypeptidase III Ligands to Compete the Uptake of [177Lu]Lu-PSMA-617 in Healthy Organs” (J Med Chem, 2024)

Columns and labels:
[1] = target: T1, N-acetylated-alpha-linked acidic dipeptidase 2 (Homo sapiens, UniProt Q9Y3Q0); test: Binding affinity to human recombinant GCPIII assessed as dissociation constant by fluorescence polarization assay
[2] = target: T2, Glutamate carboxypeptidase 2 (Homo sapiens, UniProt Q04609); test: Binding affinity to human recombinant PSMA assessed as dissociation constant by fluorescence polarization assay
[3] = target: T1, N-acetylated-alpha-linked acidic dipeptidase 2; test: Displacement of [177Lu]LU-PSMA-617 from human recombinant GCPIII assessed as dissociation constant by fluorescence polarization assay
[4] = target: T2, Glutamate carboxypeptidase 2; test: Displacement of [177Lu]LU-PSMA-617 from human recombinant PSMA assessed as dissociation constant by fluorescence polarization assay

T2 sequence (Q04609 whole entry): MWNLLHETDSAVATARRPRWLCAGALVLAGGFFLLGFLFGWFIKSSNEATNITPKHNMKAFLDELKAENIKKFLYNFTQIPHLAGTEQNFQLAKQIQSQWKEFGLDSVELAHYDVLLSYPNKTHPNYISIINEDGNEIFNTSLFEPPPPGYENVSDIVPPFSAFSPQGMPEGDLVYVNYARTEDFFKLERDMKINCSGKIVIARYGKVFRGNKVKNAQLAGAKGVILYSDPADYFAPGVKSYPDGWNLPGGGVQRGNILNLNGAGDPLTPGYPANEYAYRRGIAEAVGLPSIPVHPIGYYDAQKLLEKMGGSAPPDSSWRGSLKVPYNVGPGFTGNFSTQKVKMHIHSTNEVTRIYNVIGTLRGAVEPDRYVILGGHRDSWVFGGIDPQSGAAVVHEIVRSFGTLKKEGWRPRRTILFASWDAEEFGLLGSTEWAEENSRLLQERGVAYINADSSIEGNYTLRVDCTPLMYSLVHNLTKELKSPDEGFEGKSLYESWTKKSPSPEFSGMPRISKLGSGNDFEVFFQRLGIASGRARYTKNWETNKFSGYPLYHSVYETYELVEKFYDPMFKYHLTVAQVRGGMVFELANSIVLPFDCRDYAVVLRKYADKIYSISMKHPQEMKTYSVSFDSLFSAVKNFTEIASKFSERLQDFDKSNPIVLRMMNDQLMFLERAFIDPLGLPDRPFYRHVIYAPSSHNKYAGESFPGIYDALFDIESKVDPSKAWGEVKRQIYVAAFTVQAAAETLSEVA
T1 sequence (Q9Y3Q0 whole entry): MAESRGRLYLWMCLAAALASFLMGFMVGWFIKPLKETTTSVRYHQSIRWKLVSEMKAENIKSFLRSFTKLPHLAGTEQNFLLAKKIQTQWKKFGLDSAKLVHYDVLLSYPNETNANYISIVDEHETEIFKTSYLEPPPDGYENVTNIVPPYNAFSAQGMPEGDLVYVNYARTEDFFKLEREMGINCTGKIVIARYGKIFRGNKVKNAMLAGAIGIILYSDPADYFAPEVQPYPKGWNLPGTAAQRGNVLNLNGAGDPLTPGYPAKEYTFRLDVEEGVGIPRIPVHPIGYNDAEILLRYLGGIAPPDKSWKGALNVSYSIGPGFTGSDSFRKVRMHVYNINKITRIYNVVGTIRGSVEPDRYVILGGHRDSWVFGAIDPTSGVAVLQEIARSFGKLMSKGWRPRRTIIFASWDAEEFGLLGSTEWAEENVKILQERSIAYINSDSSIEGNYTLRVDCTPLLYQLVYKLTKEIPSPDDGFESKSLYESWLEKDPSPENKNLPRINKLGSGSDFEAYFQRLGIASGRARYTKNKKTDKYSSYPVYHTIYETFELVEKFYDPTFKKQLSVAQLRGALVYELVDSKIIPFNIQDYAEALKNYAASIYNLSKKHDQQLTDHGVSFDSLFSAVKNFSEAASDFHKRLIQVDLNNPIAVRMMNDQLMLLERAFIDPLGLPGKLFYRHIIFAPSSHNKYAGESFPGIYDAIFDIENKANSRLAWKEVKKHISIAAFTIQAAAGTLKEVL

Compound: CC(C)c1oncc1C(=O)N1C[C@H](NC(=O)c2c[nH]nn2)C[C@H]1C(=O)N[C@@H](CCCCNC(=S)Nc1ccc2c(c1)C(=O)OC21c2ccc(O)cc2Oc2cc(O)ccc21)C(=O)O
- Kd [1]: 4.3 nM
- Kd [2]: 178 nM

Compound: CC(=O)NCCCC[C@H](NC(=O)[C@@H]1C[C@@H](NC(=O)c2c[nH]nn2)CN1C(=O)c1c[nH]nn1)C(=O)O
- Kd [3]: 6400 nM
- Kd [4]: 15000 nM

Compound: O=C(N[C@@H]1C[C@@H](C(=O)O)N(C(=O)c2cnoc2C2CC2)C1)c1c[nH]nn1
- Kd [3]: 300 nM
- Kd [4]: > 20000 nM

Compound: O=C(NCCCC[C@H](NC(=O)[C@@H]1C[C@@H](NC(=O)c2c[nH]nn2)CN1C(=O)c1c[nH]nn1)C(=O)O)c1c[nH]nn1
- Kd [3]: 12 nM
- Kd [4]: > 20000 nM

Compound: O=C(NCCCC[C@H](NC(=O)[C@@H]1C[C@@H](NC(=O)c2c[nH]nn2)CN1C(=O)c1c[nH]nn1)C(=O)Nc1c[nH]nn1)c1c[nH]nn1
- Kd [3]: 338 nM
- Kd [4]: > 20000 nM

Compound: NCCCC[C@H](NC(=O)[C@@H]1C[C@@H](NC(=O)c2c[nH]nn2)CN1C(=O)c1c[nH]nn1)C(=O)O
- Kd [3]: 17000 nM
- Kd [4]: > 20000 nM

Compound: O=C1OC2(c3ccc(O)cc3Oc3cc(O)ccc32)c2ccc(NC(=S)NCCCC[C@H](NC(=O)[C@@H]3C[C@@H](n4cc(-c5c[nH]nn5)nn4)CN3C(=O)c3cnoc3C3CC3)C(=O)O)cc21
- Kd [1]: > 300 nM

Compound: CC(=O)NC[C@H](NC(=O)[C@@H]1C[C@@H](NC(=O)c2c[nH]nn2)CN1C(=O)c1c[nH]nn1)C(=O)O
- Kd [3]: 67 nM
- Kd [4]: > 20000 nM

Compound: O=C(N[C@@H]1C[C@@H](C(=O)N[C@@H](CCCCNC(=S)Nc2ccc3c(c2)C(=O)OC32c3ccc(O)cc3Oc3cc(O)ccc32)C(=O)O)N(C(=O)c2cnoc2C2CC2)C1)c1nc[nH]n1
- Kd [1]: > 300 nM

Compound: O=C1OC2(c3ccc(O)cc3Oc3cc(O)ccc32)c2ccc(NC(=S)NCCCC[C@H](NC(=O)[C@@H]3C[C@@H](Cc4c[nH]nn4)CN3C(=O)c3cnoc3C3CC3)C(=O)O)cc21
- Kd [1]: 106 nM
- Kd [2]: > 1000 nM

Compound: O=C(N[C@@H]1C[C@@H](C(=O)N[C@H](CCCCNC(=S)Nc2ccc3c(c2)C(=O)OC32c3ccc(O)cc3Oc3cc(O)ccc32)C(=O)O)N(C(=O)c2cnoc2C2CC2)C1)c1c[nH]nn1
- Kd [1]: 23 nM
- Kd [2]: > 1000 nM

Compound: CC(C)c1nocc1C(=O)N1C[C@H](NC(=O)c2c[nH]nn2)C[C@H]1C(=O)N[C@@H](CCCCNC(=S)Nc1ccc2c(c1)C(=O)OC21c2ccc(O)cc2Oc2cc(O)ccc21)C(=O)O
- Kd [1]: 30 nM
- Kd [2]: > 1000 nM

Compound: O=C(N[C@@H]1C[C@@H](C(=O)NCCCCCCNC(=S)Nc2ccc3c(c2)C(=O)OC32c3ccc(O)cc3Oc3cc(O)ccc32)N(C(=O)c2cnoc2C2CC2)C1)c1c[nH]nn1
- Kd [1]: 7 nM
- Kd [2]: 48 nM

Compound: NCCCC[C@H](NC(=O)[C@@H]1C[C@@H](NC(=O)c2c[nH]nn2)CN1C(=O)c1cnoc1C1CC1)C(=O)O
- Kd [3]: 13000 nM
- Kd [4]: > 20000 nM

Compound: CC(=O)NCCCC[C@H](NC(=O)[C@@H]1C[C@@H](NC(=O)c2c[nH]nn2)CN1C(=O)c1cnoc1C1CC1)C(=O)O
- Kd [3]: 41 nM
- Kd [4]: > 20000 nM

Compound: O=C(CCOCCOCCOCCOCCOCCOCCOCCOCCOCCOCCC(=O)NCCCC[C@H](NC(=O)[C@@H]1C[C@@H](NC(=O)c2cnn[nH]2)CN1C(=O)c1cnoc1C1CC1)C(=O)O)NCCCC[C@H](NC(=O)[C@@H]1C[C@@H](NC(=O)c2cnn[nH]2)CN1C(=O)c1cnoc1C1CC1)C(=O)O
- Kd [3]: 505 nM
- Kd [4]: > 20000 nM

Compound: CC(=O)N[C@@H]1C[C@@H](C(=O)N[C@@H](CCCCNC(=S)Nc2ccc3c(c2)C(=O)OC32c3ccc(O)cc3Oc3cc(O)ccc32)C(=O)O)N(C(=O)c2cnoc2C2CC2)C1
- Kd [1]: > 2600 nM

Compound: O=C(NCCCCNC(=O)NCCCC[C@H](NC(=O)[C@@H]1C[C@@H](NC(=O)c2c[nH]nn2)CN1C(=O)c1cnoc1C1CC1)C(=O)O)NCCCC[C@H](NC(=O)[C@@H]1C[C@@H](NC(=O)c2c[nH]nn2)CN1C(=O)c1cnoc1C1CC1)C(=O)O
- Kd [3]: 53 nM
- Kd [4]: 13000 nM

Compound: O=C(NC[C@H](NC(=O)[C@@H]1C[C@@H](NC(=O)c2c[nH]nn2)CN1C(=O)c1cnoc1C1CC1)C(=O)O)c1c[nH]nn1
- Kd [3]: 8 nM
- Kd [4]: 1300 nM

Compound: Cn1cc(C(=O)N[C@@H]2C[C@@H](C(=O)N[C@@H](CCCCNC(=S)Nc3ccc4c(c3)C(=O)OC43c4ccc(O)cc4Oc4cc(O)ccc43)C(=O)O)N(C(=O)c3cnoc3C3CC3)C2)nn1
- Kd [1]: > 500 nM

Compound: O=C(N[C@@H]1C[C@@H](C(=O)N[C@@H](CCCCNC(=S)Nc2ccc3c(c2)C(=O)OC32c3ccc(O)cc3Oc3cc(O)ccc32)C(=O)O)N(C(=O)c2cnoc2-c2ccccc2)C1)c1c[nH]nn1
- Kd [1]: 6.4 nM
- Kd [2]: 23 nM

Compound: COc1ccc(C2=[N+]3C(=Cc4c(C)c(CCC(=O)NCCCC[C@H](NC(=O)[C@@H]5C[C@@H](NC(=O)c6c[nH]nn6)CN5C(=O)c5cnoc5C5CC5)C(=O)O)c(C)n4[B-]3(F)F)C=C2)cc1
- Kd [1]: 15 nM
- Kd [2]: > 1000 nM

Compound: N=c1ccc2c(-c3ccc(C(=O)NCCCC[C@H](NC(=O)[C@@H]4C[C@@H](NC(=O)c5c[nH]nn5)CN4C(=O)c4cnoc4C4CC4)C(=O)O)cc3C(=O)O)c3ccc(N)c(S(=O)(=O)O)c3oc-2c1S(=O)(=O)O
- Kd [1]: 4.5 nM
- Kd [2]: > 1000 nM

Compound: CC(=O)N1C[C@H](NC(=O)c2c[nH]nn2)C[C@H]1C(=O)N[C@@H](CCCCNC(=S)Nc1ccc2c(c1)C(=O)OC21c2ccc(O)cc2Oc2cc(O)ccc21)C(=O)O
- Kd [1]: 169 nM
- Kd [2]: > 1000 nM

Compound: NC[C@H](NC(=O)[C@@H]1C[C@@H](NC(=O)c2c[nH]nn2)CN1C(=O)c1c[nH]nn1)C(=O)O
- Kd [3]: 10000 nM
- Kd [4]: > 20000 nM

Compound: Cn1nncc1C(=O)N[C@@H]1C[C@@H](C(=O)N[C@@H](CCCCNC(=S)Nc2ccc3c(c2)C(=O)OC32c3ccc(O)cc3Oc3cc(O)ccc32)C(=O)O)N(C(=O)c2cnoc2C2CC2)C1
- Kd [1]: > 500 nM

Compound: CC(=O)NC[C@H](NC(=O)[C@@H]1C[C@@H](NC(=O)c2c[nH]nn2)CN1C(=O)c1cnoc1C1CC1)C(=O)O
- Kd [3]: 2000 nM
- Kd [4]: > 20000 nM

Compound: O=C(Cn1ccnn1)N[C@@H]1C[C@@H](C(=O)N[C@@H](CCCCNC(=S)Nc2ccc3c(c2)C(=O)OC32c3ccc(O)cc3Oc3cc(O)ccc32)C(=O)O)N(C(=O)c2cnoc2C2CC2)C1
- Kd [1]: > 500 nM

Compound: O=C(NC[C@H](NC(=O)[C@@H]1C[C@@H](NC(=O)c2c[nH]nn2)CN1C(=O)c1c[nH]nn1)C(=O)O)c1c[nH]nn1
- Kd [3]: 1.5 nM
- Kd [4]: 231 nM

Compound: COC(=O)[C@H](CCCCNC(=S)Nc1ccc2c(c1)C(=O)OC21c2ccc(O)cc2Oc2cc(O)ccc21)NC(=O)[C@@H]1C[C@@H](NC(=O)c2c[nH]nn2)CN1C(=O)c1cnoc1C1CC1
- Kd [1]: 12 nM
- Kd [2]: 332 nM

Compound: O=C(N[C@@H]1C[C@@H](C(=O)N[C@@H](CCCCNC(=S)Nc2ccc3c(c2)C(=O)OC32c3ccc(O)cc3Oc3cc(O)ccc32)C(=O)O)N(C(=O)c2cnoc2C2CC2)C1)c1c[nH]cn1
- Kd [1]: > 300 nM

Compound: O=C(N[C@@H]1C[C@@H](C(=O)NCCOCCOCCNC(=S)Nc2ccc3c(c2)C(=O)OC32c3ccc(O)cc3Oc3cc(O)ccc32)N(C(=O)c2cnoc2C2CC2)C1)c1c[nH]nn1
- Kd [1]: 24 nM
- Kd [2]: 310 nM

Compound: CC(=O)NCCCC[C@H](NC(=O)[C@@H]1C[C@@H](NC(=O)c2c[nH]nn2)CN1C(=O)c1cnoc1C1CC1)C(=O)Nc1c[nH]nn1
- Kd [3]: 3200 nM
- Kd [4]: > 20000 nM

Compound: Cc1[nH]nnc1C(=O)N[C@@H]1C[C@@H](C(=O)N[C@@H](CCCCNC(=S)Nc2ccc3c(c2)C(=O)OC32c3ccc(O)cc3Oc3cc(O)ccc32)C(=O)O)N(C(=O)c2cnoc2C2CC2)C1
- Kd [1]: > 500 nM

Compound: O=C(NCCCC[C@H](NC(=O)[C@@H]1C[C@@H](NC(=O)c2c[nH]nn2)CN1C(=O)c1cnoc1C1CC1)C(=O)O)c1c[nH]nn1
- Kd [3]: 12 nM
- Kd [4]: > 20000 nM
